Data from ChEMBL document CHEMBL5154828 (J Med Chem, 2022).

Key:
MCF7 = assay: Antiproliferative activity against human MCF7 cells assessed as inhibition of cell growth measured after 6 days by cell titre glo luminescence assay; conditions: MCF7, 144 h
Estrogen receptor [1] = biological target: T1, Estrogen receptor (Homo sapiens, UniProt P03372); assay: Induction of ERalpha degradation in human MCF7 cells incubated for 24 hrs by Western blot analysis; type: cell-based
T1 sequence (P03372 whole entry): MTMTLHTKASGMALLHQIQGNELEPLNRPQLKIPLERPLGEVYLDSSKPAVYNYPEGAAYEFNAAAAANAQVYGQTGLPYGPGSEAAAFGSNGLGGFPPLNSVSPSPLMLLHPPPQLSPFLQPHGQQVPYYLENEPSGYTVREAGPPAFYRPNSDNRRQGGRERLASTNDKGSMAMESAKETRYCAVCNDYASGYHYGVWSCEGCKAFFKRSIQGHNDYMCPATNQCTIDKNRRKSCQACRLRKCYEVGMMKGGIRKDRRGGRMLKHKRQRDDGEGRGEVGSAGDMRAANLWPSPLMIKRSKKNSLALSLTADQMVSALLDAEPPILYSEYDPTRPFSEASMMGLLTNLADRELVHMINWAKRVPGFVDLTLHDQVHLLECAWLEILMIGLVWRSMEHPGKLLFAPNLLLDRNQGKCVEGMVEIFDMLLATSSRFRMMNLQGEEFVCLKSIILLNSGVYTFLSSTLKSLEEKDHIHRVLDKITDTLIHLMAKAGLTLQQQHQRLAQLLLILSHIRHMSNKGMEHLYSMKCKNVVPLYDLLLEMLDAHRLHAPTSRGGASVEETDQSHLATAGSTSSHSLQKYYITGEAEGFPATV

Estrogen receptor [2] = biological target: T1, Estrogen receptor; assay: Antagonist activity at ERalpha expressed in HEK293/Gal4 cells incubated for 24 hrs in presence of estradiol by luciferase reporter gene assay; type: cell-based
[3] = biological target: Voltage-gated inwardly rectifying potassium channel KCNH2 (Homo sapiens, UniProt Q12809); assay: Inhibition of human ERG potassium channel expressed in CHO cells by patch-clamp assay; type: toxicity, cell-based
Voltage-gated inwardly rectifying potassium channel KCNH2, sequence (Q12809 whole entry, the tested form may be a part): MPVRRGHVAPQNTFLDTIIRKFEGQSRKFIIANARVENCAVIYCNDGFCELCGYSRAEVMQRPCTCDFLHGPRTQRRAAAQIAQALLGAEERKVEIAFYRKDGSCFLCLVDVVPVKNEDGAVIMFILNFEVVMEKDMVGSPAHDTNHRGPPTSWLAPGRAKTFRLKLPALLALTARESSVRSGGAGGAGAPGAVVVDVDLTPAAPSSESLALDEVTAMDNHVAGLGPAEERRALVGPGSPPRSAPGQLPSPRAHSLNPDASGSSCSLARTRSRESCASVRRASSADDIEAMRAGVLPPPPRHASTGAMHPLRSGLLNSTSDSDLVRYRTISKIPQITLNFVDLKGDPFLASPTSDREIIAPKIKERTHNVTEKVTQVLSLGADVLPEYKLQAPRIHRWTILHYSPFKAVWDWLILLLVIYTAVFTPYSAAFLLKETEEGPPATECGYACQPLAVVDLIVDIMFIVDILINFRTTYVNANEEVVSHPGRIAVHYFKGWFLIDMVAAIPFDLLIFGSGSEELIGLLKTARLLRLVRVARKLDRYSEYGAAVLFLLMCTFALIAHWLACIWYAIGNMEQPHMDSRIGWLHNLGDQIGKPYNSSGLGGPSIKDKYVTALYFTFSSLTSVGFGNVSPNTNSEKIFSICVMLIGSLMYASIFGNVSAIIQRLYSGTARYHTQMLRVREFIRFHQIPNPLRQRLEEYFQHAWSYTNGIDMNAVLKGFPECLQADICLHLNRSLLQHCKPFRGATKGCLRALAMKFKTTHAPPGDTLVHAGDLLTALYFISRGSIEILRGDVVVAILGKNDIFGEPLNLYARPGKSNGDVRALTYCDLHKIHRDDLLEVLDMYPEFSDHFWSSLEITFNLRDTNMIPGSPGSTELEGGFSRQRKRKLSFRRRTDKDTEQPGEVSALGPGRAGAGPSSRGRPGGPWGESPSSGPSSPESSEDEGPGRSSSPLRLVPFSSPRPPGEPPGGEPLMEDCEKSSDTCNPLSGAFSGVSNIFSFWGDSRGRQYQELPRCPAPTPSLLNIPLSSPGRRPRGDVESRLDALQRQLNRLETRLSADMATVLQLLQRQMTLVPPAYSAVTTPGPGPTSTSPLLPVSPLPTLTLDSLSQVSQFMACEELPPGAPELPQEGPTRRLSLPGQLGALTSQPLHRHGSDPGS

Estrogen receptor beta = Estrogen receptor beta (Homo sapiens, UniProt Q92731); assay: Antagonist activity at ERbeta expressed in HEK293/Gal4 cells incubated for 24 hrs in presence of di-arylpropionitrile by luciferase reporter gene assay
Estrogen receptor beta, sequence (Q92731 whole entry, the tested form may be a part): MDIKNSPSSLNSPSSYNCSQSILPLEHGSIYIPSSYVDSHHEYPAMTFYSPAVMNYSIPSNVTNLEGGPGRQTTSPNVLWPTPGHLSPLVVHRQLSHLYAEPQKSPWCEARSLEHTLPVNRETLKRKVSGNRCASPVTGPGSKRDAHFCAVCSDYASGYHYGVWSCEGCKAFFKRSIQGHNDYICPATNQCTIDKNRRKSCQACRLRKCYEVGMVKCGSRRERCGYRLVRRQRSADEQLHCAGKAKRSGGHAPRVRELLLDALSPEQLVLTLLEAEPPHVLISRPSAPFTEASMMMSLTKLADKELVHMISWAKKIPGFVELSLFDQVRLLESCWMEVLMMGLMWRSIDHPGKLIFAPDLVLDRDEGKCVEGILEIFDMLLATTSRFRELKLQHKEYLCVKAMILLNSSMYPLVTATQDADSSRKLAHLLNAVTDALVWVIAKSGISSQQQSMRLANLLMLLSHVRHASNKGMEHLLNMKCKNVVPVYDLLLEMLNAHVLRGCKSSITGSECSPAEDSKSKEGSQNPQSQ

[4] = Cmax in Sprague-Dawley rat at 10 mg/kg, po measured up to 24 hrs by LC/MS/MS analysis; type: ADME, organism-based; parameters: time < 24 hrs, dose 10 mg/kg, route po; conditions: in vivo
[5] = AUC (0 to t) in Sprague-Dawley rat at 10 mg/kg, po measured up to 24 hrs by LC/MS/MS analysis; type: ADME, organism-based; parameters: time < 24 hrs, dose 10 mg/kg, route po; conditions: in vivo

Compound | IC50 (MCF7) | EC50 (Estrogen receptor [1]) | other results
CC(F)(F)c1cc(F)c(F)cc1-c1sc2c(ccc3[nH]ncc32)c1Oc1ccc(OC2CN(CCCF)C2)cc1 | 1.6 nM | 3.4 nM | IC50 (Estrogen receptor [2]): 2.5 nM
CC(F)(F)c1cc(F)ccc1-c1sc2c(ccc3[nH]ncc32)c1Oc1ccc(NC2CN(CCCF)C2)c(F)c1 | 0.8 nM | 1.3 nM | IC50 (Estrogen receptor [2]): 1.1 nM; IC50 [3]: 27500 nM
CC(F)(F)c1cc(F)ccc1-c1sc2c(ccc3[nH]ncc32)c1Oc1ccc(OCCN2CC(CF)C2)cc1F | 3.3 nM | – | –
COc1cc(Oc2c(-c3ccc(F)cc3C(C)(F)F)sc3c2ccc2[nH]ncc23)ccc1OC1CN(CCCF)C1 | 0.9 nM | 0.4 nM | IC50 (Estrogen receptor [2]): 0.6 nM; IC50 [3]: > 40000 nM
CC(F)(F)c1cc(F)ccc1-c1sc2c(ccc3[nH]ncc32)c1Oc1ccc(S(=O)(=O)CCN2CC(CF)C2)cc1 | 5.9 nM | > 1000 nM | –
CC(F)(F)c1cc(F)ccc1-c1sc2c(ccc3[nH]ncc32)c1Oc1ccc(COCCN2CC(CF)C2)cc1 | 4.7 nM | > 1000 nM | –
O=C(O)c1ccc2c(c1)CCCC(c1ccc(Cl)cc1Cl)=C2c1ccc(O[C@H]2CCN(CCCF)C2)cc1 [AMCENESTRANT] | 9.1 nM | – | IC50 (Estrogen receptor beta): 8.6 nM
CC(F)(F)c1cc(Cl)ccc1-c1sc2c(ccc3[nH]ncc32)c1Oc1ccc(S(=O)(=O)C2CN(CCCF)C2)cc1 | 33.9 nM | – | –
COc1cc(Oc2c(-c3ccc(F)cc3C(C)(F)F)sc3c2ccc2[nH]ncc23)ccc1NC1CN(CCCF)C1 | – | – | IC50 [3]: 11500 nM
CC(F)(F)c1cc(Cl)ccc1-c1sc2cc(C(=O)O)ccc2c1Oc1ccc(O[C@@H]2CCN(CCCF)C2)cc1 | 4.2 nM | 1 nM | –
CC(C)(c1cc(F)ccc1-c1sc2c(ccc3[nH]ncc32)c1Oc1ccc(NC2CN(CCCF)C2)cc1)C(F)(F)F | 5.1 nM | – | –
CC(F)(F)c1cc(F)c(F)cc1-c1sc2c(ccc3[nH]ncc32)c1Oc1ccc(NC2CN(CCCF)C2)cc1 | – | – | IC50 [3]: 7400 nM
CC(F)(F)c1cc(F)ccc1-c1sc2c(ccc3[nH]ncc32)c1Oc1ccc(NC2CN(CCCF)C2)c(C(F)(F)F)c1 | 6.2 nM | – | –
CC(F)(F)c1cc(F)ccc1-c1sc2c(ccc3[nH]ncc32)c1Oc1ccc(/C=C/CN2CC(CF)C2)cc1 | 7.9 nM | – | –
CC(F)(F)c1cc(Cl)ccc1-c1sc2cc(C(=O)O)ccc2c1Oc1ccc(NC2CN(CCCF)C2)cc1 | 5.9 nM | 13.1 nM | –
CC(F)(F)c1cc(Cl)ccc1-c1sc2cc(C(=O)O)ccc2c1Oc1ccc(OC2CN(CCCF)C2)cc1 | 34.7 nM | 3.9 nM | –
CC(c1cc(F)ccc1-c1sc2c(ccc3[nH]ncc32)c1Oc1ccc(OC2CN(CCCF)C2)cc1)C(F)(F)F (centres undefined) | 2.2 nM | 2.5 nM | –
CC(F)(F)c1cc(F)ccc1-c1sc2cc3[nH]ncc3cc2c1Oc1ccc(/C=C/C(=O)O)cc1 | 483 nM | – | –
CC(F)(F)c1cc(Cl)ccc1-c1sc2c(ccc3[nH]ncc32)c1Oc1ccc(O[C@@H]2CCN(CCCF)C2)cc1 | 2.6 nM | 0.7 nM | –

Compound | IC50 (MCF7) | EC50 (Estrogen receptor [1]) | other results
FCC1CN(CCOc2ccc(Oc3c(-c4ccc(OC(F)(F)F)cc4F)sc4c3ccc3[nH]ncc34)cc2)C1 | 38.5 nM | – | –
CC(F)(F)c1cc(Cl)ccc1-c1sc2c(ccc3[nH]ncc32)c1Oc1ccc(N[C@@H]2CCN(CCCF)C2)cc1 | 0.6 nM | 1 nM | –
CC(F)(F)c1cc(F)ccc1-c1sc2cc(B(O)O)ccc2c1Oc1ccc(OCCN2CCC(F)CC2)cc1 | 19.4 nM | – | –
CC(F)(F)c1cc(F)ccc1-c1sc2cc(B(O)O)ccc2c1Oc1ccc(OCCN2CC[C@@H](CF)C2)cc1 | 1.5 nM | 2.2 nM | –
COc1cc(Oc2c(-c3cc(F)c(F)cc3C(C)(F)F)sc3c2ccc2[nH]ncc23)ccc1OC1CN(CCCF)C1 | 1.2 nM | 3 nM | IC50 (Estrogen receptor [2]): 1.4 nM
CC(F)(F)c1cc(Cl)ccc1-c1sc2c(ccc3[nH]ncc32)c1Oc1ccc(OC2CN(CCCC#N)C2)cc1 | 81.4 nM | – | –
CC(F)(F)c1cc(F)ccc1-c1sc2c(ccc3[nH]ncc32)c1Oc1c(F)cc(OCCN2CC(CF)C2)cc1F | 15.1 nM | – | –
CC(F)(c1cc(F)ccc1-c1sc2c(ccc3[nH]ncc32)c1Oc1ccc(NC2CN(CCCF)C2)cc1)C(F)(F)F (centres undefined) | 1.7 nM | 6.6 nM | –
CC(C)(F)c1cc(F)ccc1-c1sc2c(ccc3[nH]ncc32)c1Oc1ccc(NC2CN(CCCF)C2)cc1 | – | – | IC50 [3]: 6200 nM
CC(F)(F)c1cc(F)ccc1-c1sc2cc(B(O)O)ccc2c1Oc1ccc(/C=C/C(=O)O)cc1 | 23.9 nM | – | –
CC(F)(F)c1cc(F)ccc1-c1sc2c(ccc3[nH]ncc32)c1Oc1ccc(OC2CN(CCCF)C2)c(F)c1 | 0.8 nM | 1.3 nM | IC50 (Estrogen receptor [2]): 1 nM
COc1cc(Oc2c(-c3ccc(F)cc3CC(F)(F)F)sc3c2ccc2[nH]ncc23)ccc1OC1CN(CCCF)C1 | 0.6 nM | 1.8 nM | IC50 (Estrogen receptor [2]): 0.9 nM
COc1cc(Oc2c(-c3cc(F)c(F)cc3C(C)(F)F)sc3c2ccc2[nH]ncc23)ccc1NC1CN(CCCF)C1 | 1.7 nM | 2.6 nM | IC50 (Estrogen receptor [2]): 2.5 nM; IC50 [3]: 15600 nM
CC(F)(F)c1cc(F)ccc1-c1sc2c(ccc3[nH]ncc32)c1Oc1ccc(CCN2CC(CF)C2)cc1 | 14.7 nM | – | –
FCC1CN(CCOc2ccc(Oc3c(-c4ccc(C(F)(F)F)cc4F)sc4c3ccc3[nH]ncc34)cc2)C1 | 148 nM | – | –
FCC1CN(CCOc2ccc(Oc3c(-c4ccc(F)cc4C4CC4)sc4c3ccc3[nH]ncc34)cc2)C1 | 8.8 nM | – | –
Cc1cc(C(F)(F)F)ncc1-c1sc2c(ccc3[nH]ncc32)c1Oc1ccc(OCCN2CC(CF)C2)cc1 | 623 nM | – | –
CC(F)(F)c1cc(Cl)ccc1-c1sc2c(ccc3[nH]ncc32)c1Oc1ccc(OC[C@H]2CCCN2CCCF)cc1 | 8.3 nM | > 1000 nM | –
Cc1cc(Cl)cc(C)c1-c1sc2c(ccc3[nH]ncc32)c1Oc1ccc(OCCN2CC(CF)C2)cc1 | 29.5 nM | – | –

Compound | IC50 (MCF7) | EC50 (Estrogen receptor [1]) | other results
CC(F)(F)c1cc(F)ccc1-c1sc2c(ccc3[nH]ncc32)c1Oc1ccc(/C=C/C(=O)O)cc1 | 26.6 nM | – | –
COc1cc(Oc2c(-c3ccc(F)cc3C(C)(C)F)sc3c2ccc2[nH]ncc23)ccc1OC1CN(CCCF)C1 | 0.5 nM | 1.4 nM | IC50 (Estrogen receptor [2]): 0.8 nM; IC50 [3]: > 40000 nM; Cmax [4]: 47 ng/mL; AUC(0-t) at 24 h [5]: 264 ng·h/mL
CC(C)(F)c1cc(F)ccc1-c1sc2c(ccc3[nH]ncc32)c1Oc1ccc(OC2CN(CCCF)C2)c(F)c1 | – | – | IC50 [3]: > 40000 nM
CC(F)(F)c1cc(F)ccc1-c1sc2c(ccc3[nH]ncc32)c1Oc1ccc(OC2CN(CCCF)C2)cc1F | 7.8 nM | – | –
CC(F)(F)c1cc(F)ccc1-c1sc2cc(B(O)O)ccc2c1Oc1ccc(OCCN2CC(CC#N)C2)cc1 | 2.7 nM | – | –
Cc1cc(F)cc(C)c1-c1sc2c(ccc3[nH]ncc32)c1Oc1ccc(OCCN2CC(CF)C2)cc1 | 27.3 nM | – | –
FCCCN1CC(Nc2ccc(Oc3c(-c4ccc(F)cc4CC(F)(F)F)sc4c3ccc3[nH]ncc34)cc2)C1 | 0.8 nM | 2.2 nM | IC50 (Estrogen receptor [2]): 1.3 nM
CC(F)(F)c1cc(F)ccc1-c1sc2c(ccc3[nH]ncc32)c1Oc1ccc(OCCN2CC(CC#N)C2)cc1 | 2.4 nM | 0.4 nM | –
FCCCN1CC(Oc2ccc(Oc3c(-c4ccc(F)cc4C4(F)CC4)sc4c3ccc3[nH]ncc34)cc2)C1 | 5.3 nM | – | –
Oc1cccc(-c2sc3c(ccc4[nH]ncc43)c2Oc2ccc(OCCN3CC(CF)C3)cc2)c1 | > 1000 nM | – | –
CC(F)(F)c1cc(F)ccc1-c1sc2c(ccc3[nH]ncc32)c1-c1ccc(OCCN2CC(CF)C2)cc1 | > 1000 nM | – | –
CC(F)(F)c1cc(F)ccc1-c1sc2c(ccc3[nH]ncc32)c1Oc1ccc(OCCN2CC(CF)C2)cc1 | 1.1 nM | 0.9 nM | –
COc1cc(Oc2c(-c3ccc(F)cc3CC(F)(F)F)sc3c2ccc2[nH]ncc23)ccc1NC1CN(CCCF)C1 | 1.7 nM | 2.2 nM | IC50 (Estrogen receptor [2]): 1.1 nM
CC(F)(F)c1cc(F)c(F)cc1-c1sc2c(ccc3[nH]ncc32)c1Oc1ccc(OC2CN(CCCF)C2)c(F)c1 | 2.8 nM | 3.9 nM | IC50 (Estrogen receptor [2]): 5.3 nM; IC50 [3]: > 40000 nM; Cmax [4]: 132 ng/mL; AUC(0-t) at 24 h [5]: 1280 ng·h/mL
FCCCN1CC(Oc2ccc(Oc3c(-c4ccc(F)cc4CC(F)(F)F)sc4c3ccc3[nH]ncc34)cc2F)C1 | – | – | IC50 [3]: > 40000 nM
CC(F)(F)c1cc(F)ccc1-c1sc2cc(B(O)O)ccc2c1Oc1ccc(OCCN2CC(CF)C2)cc1 | 1.9 nM | 1.2 nM | –
CC(F)(F)c1cc(Cl)ccc1-c1sc2cc(C(=O)O)ccc2c1Oc1ccc(OCCN2CC(CF)C2)cc1 | 4.4 nM | 2.6 nM | –
CC(F)(F)c1cc(F)ccc1-c1sc2c(ccc3[nH]ncc32)c1Oc1ccc(OCCN2CC3C(C2)C3(F)F)cc1 (centres undefined) | 7.6 nM | > 1000 nM | –
